Read-outs that look alike come from different tables or passages of the source.
Experiments:
Format in all cases: in vivo
Myzus persicae = Myzus persicae (green peach aphid) sunflower leaf disc test; conditions: foliar, 144 h
Method: Myzus persicae (Green Peach Aphid):
Sunflower leaf discs were placed on agar in a 24-well microtiter plate and sprayed with test solutions at an application rate of 200 ppm. After drying, the leaf discs were infested with an aphid population of mixed ages. After an incubation period of 6 days after treatment, samples were checked for mortality. The following compounds gave at least 80% mortality of Myzus persicae: […]

Tetranychus urticae = Tetranychus urticae (two-spotted spider mite) bean leaf disc test; conditions: foliar, 192 h
Method: Tetranychus urticae (Two-Spotted Spider Mite):
Bean leaf discs on agar in 24-well microtiter plates were sprayed with aqueous test solutions prepared from 10′000 ppm DMSO stock solutions. After drying the leaf discs were infested with a mite population of mixed ages. The samples were assessed for mortality on mixed population (mobile stages) 8 days after infestation.

Thrips tabaci = Thrips tabaci (onion thrips) sunflower leaf disc test; conditions: foliar, 144 h
Method: Thrips tabaci (Onion Thrips):
Sunflower leaf discs were placed on agar in 24-well microtiter plates and sprayed with aqueous test solutions prepared from 10′000 ppm DMSO stock solutions. After drying the leaf discs were infested with a thrips population of mixed ages. The samples were assessed for mortality 6 days after infestation.

Diabrotica Balteata = experiment: Diabrotica balteata (corn root worm) maize sprout test; conditions: 96 h, read-out: effect in at least one of the two categories (mortality or growth inhibition)
Method in brief: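 Scoring covered both mortality and growth inhibition relative to untreated controls, 4 days post-infestation. Test solutions at 200 ppm, diluted in water from 10′000 ppm DMSO stocks, were sprayed onto agar-held maize sprouts, which after drying received 6 to 10 L2 larvae each well.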

Spodoptera littoralis = Spodoptera littoralis (Egyptian cotton leaf worm) cotton leaf disc test; conditions: foliar, 72 h, read-out: control (at least one of mortality, anti-feedant effect, and growth inhibition)
Method in brief: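 Five first-instar larvae per disc were placed on dried, sprayed cotton leaf discs held on agar. Test solutions were aqueous, made from 10′000 ppm DMSO stocks. At day 3, control was counted when mortality, feeding deterrence or growth inhibition exceeded the untreated discs.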

Plutella xylostella = Plutella xylostella (diamond back moth) artificial diet test; conditions: 120 h, read-out: effect in at least one of the two categories (mortality or growth inhibition)
Method in brief: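 At a 200 ppm rate, test solutions were applied to artificial diet and allowed to dry before second-instar larvae were added. Five days later, larval mortality and growth inhibition were rated against untreated samples.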

CC1=NOC(NC(=O)c2ccc(C3=NO[C@@](c4cc(Cl)cc(C(F)(F)F)c4)(C(F)(F)F)C3)cc2C)C1 (stereo partly drawn) [Compound A028, 4-[(5S)-5-[3-chloro-5-(trifluoromethyl)phenyl]-5-(trifluoromethyl)-4H-isoxazol-3-yl]-2-methyl-N-(3-methyl-4,5-dihydroisoxazol-5-yl)benzamide]
≥ 80%: mortality at 200 ppm (Myzus persicae) | mortality at 200 ppm (Tetranychus urticae) | mortality at 200 ppm (Thrips tabaci) | percent effect (mortality or growth inhibition) at 200 ppm (Diabrotica Balteata) | percent control (mortality, anti-feedant effect or growth inhibition) at 200 ppm (Spodoptera littoralis) | percent effect (mortality or growth inhibition) at 200 ppm (Plutella xylostella)

CCOC1=NOC(NC(=O)c2ccc(C3=NO[C@@](c4cc(Cl)c(Cl)c(Cl)c4)(C(F)(F)F)C3)cc2Cl)C1 (stereo partly drawn) [Compound A060, 2-chloro-N-(3-ethoxy-4,5-dihydroisoxazol-5-yl)-4-[(5S)-5-(3,4,5-trichlorophenyl)-5-(trifluoromethyl)-4H-isoxazol-3-yl]benzamide]
≥ 80%: mortality at 200 ppm (Myzus persicae) | mortality at 200 ppm (Tetranychus urticae) | mortality at 200 ppm (Thrips tabaci) | percent effect (mortality or growth inhibition) at 200 ppm (Diabrotica Balteata) | percent control (mortality, anti-feedant effect or growth inhibition) at 200 ppm (Spodoptera littoralis) | percent effect (mortality or growth inhibition) at 200 ppm (Plutella xylostella)

Cc1cc(C2=NO[C@@](c3cc(Cl)cc(Cl)c3)(C(F)(F)F)C2)ccc1C(=O)NC1CC(OCC(F)F)=NO1 (stereo partly drawn) [Compound A128]
≥ 80%: mortality at 200 ppm (Myzus persicae) | mortality at 200 ppm (Tetranychus urticae) | mortality at 200 ppm (Thrips tabaci) | percent effect (mortality or growth inhibition) at 200 ppm (Diabrotica Balteata) | percent control (mortality, anti-feedant effect or growth inhibition) at 200 ppm (Spodoptera littoralis) | percent effect (mortality or growth inhibition) at 200 ppm (Plutella xylostella)

Cc1cc(C2=NO[C@@](c3cc(Cl)c(F)c(Cl)c3)(C(F)(F)F)C2)ccc1C(=O)NC1CC(OC2CC2)=NO1 (stereo partly drawn) [Compound A078]
≥ 80%: mortality at 200 ppm (Myzus persicae) | mortality at 200 ppm (Tetranychus urticae) | mortality at 200 ppm (Thrips tabaci) | percent effect (mortality or growth inhibition) at 200 ppm (Diabrotica Balteata) | percent control (mortality, anti-feedant effect or growth inhibition) at 200 ppm (Spodoptera littoralis) | percent effect (mortality or growth inhibition) at 200 ppm (Plutella xylostella)

Cc1cc(C2=NO[C@@](c3cc(Cl)c(F)c(Cl)c3)(C(F)(F)F)C2)ccc1C(=O)NC1CC=NO1 (stereo partly drawn) [Compound A091]
≥ 80%: mortality at 200 ppm (Myzus persicae) | mortality at 200 ppm (Tetranychus urticae) | mortality at 200 ppm (Thrips tabaci) | percent effect (mortality or growth inhibition) at 200 ppm (Diabrotica Balteata) | percent control (mortality, anti-feedant effect or growth inhibition) at 200 ppm (Spodoptera littoralis) | percent effect (mortality or growth inhibition) at 200 ppm (Plutella xylostella)

CC1=NOC(NC(=O)c2ccc(C3=NO[C@@](c4cc(Cl)c(F)c(Cl)c4)(C(F)(F)F)C3)cc2Cl)C1 (stereo partly drawn) [Compound A038, 2-chloro-4-[(5S)-5-(3,5-dichloro-4-fluoro-phenyl)-5-(trifluoromethyl)-4H-isoxazol-3-yl]-N-(3-methyl-4,5-dihydroisoxazol-5-yl)benzamide]
≥ 80%: mortality at 200 ppm (Myzus persicae) | mortality at 200 ppm (Tetranychus urticae) | mortality at 200 ppm (Thrips tabaci) | percent effect (mortality or growth inhibition) at 200 ppm (Diabrotica Balteata) | percent control (mortality, anti-feedant effect or growth inhibition) at 200 ppm (Spodoptera littoralis) | percent effect (mortality or growth inhibition) at 200 ppm (Plutella xylostella)

Cc1cc(C2=NO[C@@](c3cc(Cl)c(F)c(Cl)c3)(C(F)(F)F)C2)ccc1C(=O)NC1CC(OCC(F)(F)C(F)F)=NO1 (stereo partly drawn) [Compound A101]
≥ 80%: mortality at 200 ppm (Myzus persicae) | mortality at 200 ppm (Tetranychus urticae) | mortality at 200 ppm (Thrips tabaci) | percent effect (mortality or growth inhibition) at 200 ppm (Diabrotica Balteata) | percent control (mortality, anti-feedant effect or growth inhibition) at 200 ppm (Spodoptera littoralis) | percent effect (mortality or growth inhibition) at 200 ppm (Plutella xylostella)

Cc1cc(C2=NO[C@@](c3cc(Cl)cc(C(F)(F)F)c3)(C(F)(F)F)C2)ccc1C(=O)N(C=O)C1CC(Cl)=NO1 (stereo partly drawn) [Compound A012, N-(3-chloro-4,5-dihydroisoxazol-5-yl)-4-[(5S)-5-[3-chloro-5-(trifluoromethyl)phenyl]-5-(trifluoromethyl)-4H-isoxazol-3-yl]-N-formyl-2-methyl-benzamide]
≥ 80%: mortality at 200 ppm (Myzus persicae) | mortality at 200 ppm (Tetranychus urticae) | mortality at 200 ppm (Thrips tabaci) | percent effect (mortality or growth inhibition) at 200 ppm (Diabrotica Balteata) | percent control (mortality, anti-feedant effect or growth inhibition) at 200 ppm (Spodoptera littoralis) | percent effect (mortality or growth inhibition) at 200 ppm (Plutella xylostella)

CC1=NOC(NC(=O)c2ccc(C3=NO[C@@](c4cc(Cl)c(Cl)c(Cl)c4)(C(F)(F)F)C3)cc2Br)C1 (stereo partly drawn) [Compound A037, 2-bromo-N-(3-methyl-4,5-dihydroisoxazol-5-yl)-4-[(5S)-5-(3,4,5-trichlorophenyl)-5-(trifluoromethyl)-4H-isoxazol-3-yl]benzamide]
≥ 80%: mortality at 200 ppm (Myzus persicae) | mortality at 200 ppm (Tetranychus urticae) | mortality at 200 ppm (Thrips tabaci) | percent effect (mortality or growth inhibition) at 200 ppm (Diabrotica Balteata) | percent control (mortality, anti-feedant effect or growth inhibition) at 200 ppm (Spodoptera littoralis) | percent effect (mortality or growth inhibition) at 200 ppm (Plutella xylostella)

CCOC1=NOC(N(C(=O)OC(C)(C)C)C(=O)c2ccc(C3=NO[C@@](c4cc(Cl)c(F)c(Cl)c4)(C(F)(F)F)C3)cc2C)C1 (stereo partly drawn) [Compound A132, tert-butyl N-[4-[(5S)-5-(3,5-dichloro-4-fluoro-phenyl)-5-(trifluoromethyl)-4H-isoxazol-3-yl]-2-methyl-benzoyl]-N-(3-ethoxy-4,5-dihydroisoxazol-5-yl)carbamate]
≥ 80%: mortality at 200 ppm (Myzus persicae) | mortality at 200 ppm (Tetranychus urticae) | mortality at 200 ppm (Thrips tabaci) | percent effect (mortality or growth inhibition) at 200 ppm (Diabrotica Balteata) | percent control (mortality, anti-feedant effect or growth inhibition) at 200 ppm (Spodoptera littoralis) | percent effect (mortality or growth inhibition) at 200 ppm (Plutella xylostella)

Cc1cc(C2=NO[C@@](c3cc(Br)cc(C(F)(F)F)c3)(C(F)(F)F)C2)ccc1C(=O)NC1CC(Cl)=NO1 (stereo partly drawn) [Compound A021, 4-[(5S)-5-[3-bromo-5-(trifluoromethyl)phenyl]-5-(trifluoromethyl)-4H-isoxazol-3-yl]-N-(3-chloro-4,5-dihydroisoxazol-5-yl)-2-methyl-benzamide]
≥ 80%: mortality at 200 ppm (Myzus persicae; application rate 200 ppm, sunflower leaf discs, population of mixed ages, 6 days after treatment, read-out: mortality) | mortality at 200 ppm (Tetranychus urticae; application rate 200 ppm, bean leaf discs, mixed population (mobile stages), 8 days after infestation, read-out: mortality) | mortality at 200 ppm (Thrips tabaci; application rate 200 ppm, sunflower leaf discs, population of mixed ages, 6 days after infestation, read-out: mortality) | percent effect (mortality or growth inhibition) at 200 ppm (Diabrotica Balteata; application rate 200 ppm, maize sprouts, L2 larvae, 4 days after infestation) | percent control (mortality, anti-feedant effect or growth inhibition) at 200 ppm (Spodoptera littoralis; application rate 200 ppm, cotton leaf discs, L1 larvae, 3 days after infestation) | percent effect (mortality or growth inhibition) at 200 ppm (Plutella xylostella; application rate 200 ppm, artificial diet, L2 larvae, 5 days after infestation)

CCOC1=NOC(NC(=O)c2ccc(C3=NO[C@@](c4cc(Cl)c(F)c(Cl)c4)(C(F)(F)F)C3)cc2C)C1 (stereo partly drawn) [Compound A046]
≥ 80%: mortality at 200 ppm (Myzus persicae) | mortality at 200 ppm (Tetranychus urticae) | mortality at 200 ppm (Thrips tabaci) | percent effect (mortality or growth inhibition) at 200 ppm (Diabrotica Balteata) | percent control (mortality, anti-feedant effect or growth inhibition) at 200 ppm (Spodoptera littoralis) | percent effect (mortality or growth inhibition) at 200 ppm (Plutella xylostella)

CNC1=NOC(NC(=O)c2ccc(C3=NO[C@@](c4cc(Cl)c(F)c(Cl)c4)(C(F)(F)F)C3)cc2C)C1 (stereo partly drawn) [Compound A120]
≥ 80%: mortality at 200 ppm (Myzus persicae) | mortality at 200 ppm (Tetranychus urticae) | mortality at 200 ppm (Thrips tabaci) | percent effect (mortality or growth inhibition) at 200 ppm (Diabrotica Balteata) | percent control (mortality, anti-feedant effect or growth inhibition) at 200 ppm (Spodoptera littoralis) | percent effect (mortality or growth inhibition) at 200 ppm (Plutella xylostella)

Cc1cc(C2=NO[C@@](c3cc(Cl)c(Cl)c(Cl)c3)(C(F)(F)F)C2)ccc1C(=O)NC1CC(OCc2ccccn2)=NO1 (stereo partly drawn) [Compound A112, 2-methyl-N-[3-(2-pyridylmethoxy)-4,5-dihydroisoxazol-5-yl]-4-[(5S)-5-(3,4,5-trichlorophenyl)-5-(trifluoromethyl)-4H-isoxazol-3-yl]benzamide]
≥ 80%: mortality at 200 ppm (Myzus persicae) | mortality at 200 ppm (Tetranychus urticae) | mortality at 200 ppm (Thrips tabaci) | percent effect (mortality or growth inhibition) at 200 ppm (Diabrotica Balteata) | percent control (mortality, anti-feedant effect or growth inhibition) at 200 ppm (Spodoptera littoralis) | percent effect (mortality or growth inhibition) at 200 ppm (Plutella xylostella)

Cc1cc(C2=NO[C@@](c3cc(Cl)cc(Cl)c3)(C(F)(F)F)C2)ccc1C(=O)N[C@H]1CC(C(F)(F)F)=NO1 (single isomer, unassigned) [Compound A155]
≥ 80%: mortality at 200 ppm (Myzus persicae) | mortality at 200 ppm (Tetranychus urticae) | mortality at 200 ppm (Thrips tabaci) | percent effect (mortality or growth inhibition) at 200 ppm (Diabrotica Balteata) | percent control (mortality, anti-feedant effect or growth inhibition) at 200 ppm (Spodoptera littoralis) | percent effect (mortality or growth inhibition) at 200 ppm (Plutella xylostella)

Cc1cc(C2=NO[C@@](c3cc(Cl)c(F)c(Cl)c3)(C(F)(F)F)C2)ccc1C(=O)NC1CC(OC(C)C)=NO1 (stereo partly drawn) [Compound A077]
≥ 80%: mortality at 200 ppm (Myzus persicae) | mortality at 200 ppm (Tetranychus urticae) | mortality at 200 ppm (Thrips tabaci) | percent effect (mortality or growth inhibition) at 200 ppm (Diabrotica Balteata) | percent control (mortality, anti-feedant effect or growth inhibition) at 200 ppm (Spodoptera littoralis) | percent effect (mortality or growth inhibition) at 200 ppm (Plutella xylostella)
